Data from patent US20120065103A1, “Prolyl Endopeptidase Probes” (priority 2010, published 2012).

Assays:
[1] = test system: BALF proteases (prolyl endopeptidase activity); assay: IQFP protease substrate profiling of BALF from infected and uninfected guinea pigs (Table 1); format: biochemical, guinea pig; conditions: for FI infected / Fold infected: infected guinea pig BALF; for Fold enhancement: infected vs uninfected guinea pig BALF; for FI uninfected / Fold uninfected: uninfected guinea pig BALF
Source text: Methods: The substrate specificity of AF in vitro culture supernatant was profiled with a combinatorial IQFP library in comparison with human serum to identify fungus-specific substrates. An established guinea pig model of IA was used to collect BALF during active disease for in vivo protease substrate profiling.
(§1) Methods: Guinea pig inhalation model comprises neutropenia by cortisone acetate and cyclophosphamide (days −2 and +3), 1.2×10^8 conidia/mL nebulized AF in inhalation chamber, and serum and BALF obtained at predetermined time points; Vallor et al. Antimicrob. Ag. Chemother. 2008, 52.

[2] = test system: Aspergillus fumigatus infected and uninfected guinea pig broncheoaveolar lavage fluid; assay: Screening probes against Aspergillus fumigatus infected and uninfected guinea pig BALF (Table 2); format: biochemical
Source text: as §1
Table 2 Legend. Variable region (Xaa—Yaa—Zaa) of the top 6 peptide probes are all listed in single amino acid code; AF293 and CEA10 are the two strains of Aspergillus fumigatus infected guinea pig BALF samples screened in this study.
N stands for number of guinea pig BALF samples screened against the given peptide probe. Guinea pig infected and uninfected samples with very low background (t=0 hour) and end point values (t=6 hour) (i.e., no greater than 100 units difference between t=0 hour and t=6 hour) were not selected for the statistical calculations.
Mean fold change values is the average of fluorescence fold change calculated for each guinea pig sample screened against respective peptide probe. Fluorescence fold change values are calculated according to the formula:
Fold Change=Fluorescence measured at time t=6 hour/Fluorescence measured at time t=0 hour.
* Fold change values for these peptide probes were calculated at time t=3 hour as the end point value.
SD corresponds to standard deviation calculated for the given probe screened against the respective BALF sample.
Percentage fluorescence efficiency (% FE) is calculated for each probe as follows, % FE=100 * [(Fold changeInfected BALF-Fold changeUninfected BALF)/Fold changeuninfected BALF] Fold change values are all the mean fold change values.
P values are calculated with two tailed student t-test with two sample unequal variance for each peptide probe screened against respective infected and uninfected BALF samples. […]

[3] = strain AF293, t=6 hour vs t=0 hour
[4] = strain AF293 series, t=6 hour vs t=0 hour
[5] = strain CEA10, t=6 hour vs t=0 hour
[6] = strain CEA10 series, t=6 hour vs t=0 hour
[7] = strain AF293, end point t=3 hour
[8] = strain AF293, end point t=3 hour vs t=0 hour
[9] = strain AF293 series, end point t=3 hour vs t=0 hour
[10] = strain CEA10, end point t=3 hour
[11] = strain CEA10, end point t=3 hour vs t=0 hour
[12] = strain CEA10 series, end point t=3 hour vs t=0 hour

Substance | FI infected [1] | Fold infected [1] | Fold enhancement [1] | FI uninfected [1] | Fold uninfected [1] | further results
MeOCGly-G-G-P-A/V-N/Q-G-G-Dap(Dnp)-K-K | 325 | 2.18 | 2.13 | 188 | 1.02 | –
MeOCGly-G-G-P-A/V-P-G-G-Dap(Dnp)-K-K | 488 | 2.85 | 2.62 | 234 | 1.09 | –
MeOCGly-G-G-P-D/E-K/R-G-G-Dap(Dnp)-K-K | 161 | 1.64 | 2.02 | 118 | 0.81 | –
MeOCGly-G-G-P-D/E-P-G-G-Dap(Dnp)-K-K | 349 | 2.3 | 2.31 | 213 | 1 | –
MeOCGly-G-G-P-F/Y-A/V-G-G-Dap(Dnp)-K-K | 493 | 3.06 | 2.04 | 294 | 1.5 | –
MeOCGly-G-G-P-F/Y-K/R-G-G-Dap(Dnp)-K-K | 238 | 2.09 | 2.06 | 151 | 1.01 | –
MeOCGly-G-G-P-F/Y-N/Q-G-G-Dap(Dnp)-K-K | 286 | 2.8 | 2.15 | 154 | 1.31 | –
MeOCGly-G-G-P-F/Y-P-G-G-Dap(Dnp)-K-K | 424 | 4.71 | 4.07 | 124 | 1.16 | –
MeOCGly-G-G-P-I/L-P-G-G-Dap(Dnp)-K-K | 474 | 2.74 | 2.21 | 223 | 1.24 | –
MeOCGly-G-G-P-K/R-P-G-G-Dap(Dnp)-K-K | 498 | 2.88 | 2.37 | 213 | 1.22 | –
MeOCGly-G-G-P-N/Q-A/V-G-G-Dap(Dnp)-K-K | 394 | 4.02 | 3.33 | 151 | 1.21 | –
MeOCGly-G-G-P-N/Q-P-G-G-Dap(Dnp)-K-K | 598 | 3.93 | 2.76 | 261 | 1.43 | –
MeOCGly-G-G-P-S/T-A/V-G-G-Dap(Dnp)-K-K | 467 | 4.28 | 2.39 | 176 | 1.8 | –
MeOCGly-G-G-P-S/T-F/Y-G-G-Dap(Dnp)-K-K | 397 | 3.31 | 3.08 | 146 | 1.07 | –
MeOCGly-G-G-P-S/T-P-G-G-Dap(Dnp)-K-K | 665 | 3.63 | 2.81 | 277 | 1.29 | –
MeOCGly-GGPFPGG Dap(DNP)KK-NH2 | – | – | – | – | – | % FE (percentage fluorescence efficiency) ([2]; strain AF293, t=6 hour): 227.09%; Mean Fold change, Infected BALF [2, 3]: 6.58; Mean Fold Change, Uninfected BALF [2, 4]: 2.01; % FE (percentage fluorescence efficiency) ([2]; strain CEA10, t=6 hour): 326.24%; Mean Fold change, Infected BALF [2, 5]: 12.44; Mean Fold Change, Uninfected BALF [2, 6]: 2.92
MeOCGly-GGPHPGG Dap(DNP)KK-NH2 | – | – | – | – | – | % FE (percentage fluorescence efficiency) ([2]; strain AF293, t=6 hour): 219.69%; Mean Fold change, Infected BALF [2, 3]: 4.47; Mean Fold Change, Uninfected BALF [2, 4]: 1.40; % FE (percentage fluorescence efficiency) ([2]; strain CEA10, t=6 hour): 217.59%; Mean Fold change, Infected BALF [2, 5]: 10.61; Mean Fold Change, Uninfected BALF [2, 6]: 3.34
MeOCGly-GGPNPGG Dap(DNP)KK-NH2 | – | – | – | – | – | % FE (percentage fluorescence efficiency) [2, 7]: 274.00%; Mean Fold change, Infected BALF [2, 8]: 5.68; Mean Fold Change, Uninfected BALF [2, 9]: 1.52; % FE (percentage fluorescence efficiency) [2, 10]: 252.39%; Mean Fold change, Infected BALF [2, 11]: 13.68; Mean Fold Change, Uninfected BALF [2, 12]: 3.88
MeOCGly-GGPNPNPGG Dap(DNP)KK-NH2 | – | – | – | – | – | % FE (percentage fluorescence efficiency) ([2]; strain AF293, t=6 hour): 355.02%; Mean Fold change, Infected BALF [2, 3]: 13.47; Mean Fold Change, Uninfected BALF [2, 4]: 2.96; % FE (percentage fluorescence efficiency) ([2]; strain CEA10, t=6 hour): 111.20%; Mean Fold change, Infected BALF [2, 5]: 8.72; Mean Fold Change, Uninfected BALF [2, 6]: 4.13
MeOCGly-GGPSPGG Dap(DNP)KK-NH2 | – | – | – | – | – | % FE (percentage fluorescence efficiency) ([2]; strain AF293, t=6 hour): 309.39%; Mean Fold change, Infected BALF [2, 3]: 12.49; Mean Fold Change, Uninfected BALF [2, 4]: 3.05; % FE (percentage fluorescence efficiency) ([2]; strain CEA10, t=6 hour): 142.55%; Mean Fold change, Infected BALF [2, 5]: 11.00; Mean Fold Change, Uninfected BALF [2, 6]: 4.54
MeOCGly-GGPYPGG Dap(DNP)KK-NH2 | – | – | – | – | – | % FE (percentage fluorescence efficiency) [2, 7]: 203.00%; Mean Fold change, Infected BALF [2, 8]: 5.42; Mean Fold Change, Uninfected BALF [2, 9]: 1.79; % FE (percentage fluorescence efficiency) [2, 10]: 310.44%; Mean Fold change, Infected BALF [2, 11]: 14.62; Mean Fold Change, Uninfected BALF [2, 12]: 3.56
